ChEMBL document CHEMBL4814021, “Synthesis, biological evaluation, and correlation of cytotoxicity versus redox potential of 1,4-naphthoquinone derivatives” (Bioorg Med Chem Lett, 2021)
pIC50: −log10 of the molar value.

Assays:
DNA topoisomerase 1 = molecular target: T1, DNA topoisomerase 1 (Homo sapiens, UniProt P11387); experiment: Inhibition of DNA topoisomerase 1 (unknown origin)
T1 sequence (P11387 whole entry): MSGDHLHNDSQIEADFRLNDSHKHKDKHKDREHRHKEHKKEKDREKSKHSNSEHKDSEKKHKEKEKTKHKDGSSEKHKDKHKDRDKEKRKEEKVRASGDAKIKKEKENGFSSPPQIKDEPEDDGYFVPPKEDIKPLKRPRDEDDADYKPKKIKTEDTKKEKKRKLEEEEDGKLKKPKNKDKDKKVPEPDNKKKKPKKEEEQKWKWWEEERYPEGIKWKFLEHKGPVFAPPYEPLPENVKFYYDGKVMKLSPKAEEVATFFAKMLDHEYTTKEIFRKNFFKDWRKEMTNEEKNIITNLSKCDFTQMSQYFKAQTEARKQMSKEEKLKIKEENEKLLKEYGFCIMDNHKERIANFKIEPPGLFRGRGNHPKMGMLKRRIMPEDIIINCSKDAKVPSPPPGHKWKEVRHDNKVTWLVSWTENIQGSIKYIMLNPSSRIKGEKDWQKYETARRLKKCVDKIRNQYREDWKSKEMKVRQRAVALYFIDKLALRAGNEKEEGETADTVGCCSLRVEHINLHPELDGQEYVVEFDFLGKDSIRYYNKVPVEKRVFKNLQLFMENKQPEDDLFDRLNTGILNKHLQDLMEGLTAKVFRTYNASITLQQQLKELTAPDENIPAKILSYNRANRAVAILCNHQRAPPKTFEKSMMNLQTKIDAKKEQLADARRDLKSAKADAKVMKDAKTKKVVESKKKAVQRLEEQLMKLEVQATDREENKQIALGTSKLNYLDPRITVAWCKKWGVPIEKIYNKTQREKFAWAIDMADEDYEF

KB = experiment: Cytotoxicity against human KB cells; assay type: functional, cell-based
[1] = Redox potential of compound in phosphate buffer at pH 7.2 by cyclic voltammetry; assay type: physicochemical
HeLa = experiment: Cytotoxicity against human HeLa cells; assay type: functional, cell-based

| Structure (SMILES) | pIC50 (DNA topoisomerase 1) | Activity [1] [V] | pIC50 (KB) | pIC50 (HeLa) |
| --- | --- | --- | --- | --- |
| C/C=C/C(=O)OC1=CC(=O)c2ccccc2C1=O | – | -0.413 | 4.19 | 4.42 |
| CS(=O)(=O)Oc1cccc2c1C(=O)C=CC2=O | < 4.00 | -0.158 | 4.57 | 4.63 |
| COc1cccc2c1C(=O)C=CC2=O | 4.32 | -0.165 | 4.62 | 4.66 |
| CCOC1=CC(=O)c2ccccc2C1=O | – | -0.304 | 4.77 | 4.62 |
| O=C(OC1=CC(=O)c2ccccc2C1=O)c1ccccc1 | – | -0.368 | 4.43 | 4.26 |
| Cc1ccc(S(=O)(=O)OC2=CC(=O)c3ccccc3C2=O)cc1 | – | -0.165 | 4.73 | 4.91 |
| COC1=CC(=O)c2ccccc2C1=O [2-Methoxy-1,4-naphthoquinone] | – | -0.305 | 4.76 | 4.53 |
| CC(=O)OC1=CC(=O)c2ccccc2C1=O | – | -0.416 | 4.41 | 4.21 |
| CCCCOC1=CC(=O)c2ccccc2C1=O | – | -0.305 | 4.57 | 4.45 |
| CCCOC1=CC(=O)c2ccccc2C1=O | – | -0.32 | 4.31 | 4.29 |
| CS(=O)(=O)OC1=CC(=O)c2ccccc2C1=O | – | -0.146 | 5.14 | 5.12 |
| O=C1C=CC(=O)c2c(OCc3ccccc3)cccc21 | – | -0.16 | 5.07 | 4.86 |
| CC1=CC(=O)c2c(O)cccc2C1=O [PLUMBAGIN] | – | -0.346 | 5.01 | 4.99 |
| O=C1C=C(Oc2ccco2)C(=O)c2ccccc21 | – | -0.395 | 4.27 | 4.43 |
| Cc1ccc(S(=O)(=O)Oc2cccc3c2C(=O)C=CC3=O)cc1 | – | -0.151 | 4.97 | 5.02 |
| O=C1C=CC(=O)c2c(O)cccc21 [JUGLONE] | 5.08 | -0.204 | 5.18 | 4.80 |
| O=C1C=C(O)C(=O)c2ccccc21 [LAWSONE] | – | -0.431 | 3.98 | 4.15 |
| CC(=O)Oc1cccc2c1C(=O)C=CC2=O | – | -0.208 | 5.86 | 5.19 |
| O=C(Oc1cccc2c1C(=O)C=CC2=O)c1ccccc1 | 4.04 | -0.208 | 5.19 | 4.89 |

The next lines start with results.

| pIC50 (DNA topoisomerase 1) | Activity [1] [V] | Structure (SMILES) | pIC50 (KB) | pIC50 (HeLa) |
| --- | --- | --- | --- | --- |
| < 4.00 | -0.154 | Cc1ccc(S(=O)(=O)Oc2ccc3c(c2)C(=O)C=CC3=O)cc1 | 4.79 | 4.82 |
| – | -0.194 | C=CCOc1ccc2c(c1)C(=O)C=CC2=O | 4.99 | 4.57 |
| – | -0.15 | CS(=O)(=O)Oc1ccc2c(c1)C(=O)C=CC2=O | 4.94 | 4.75 |
| – | -0.196 | COc1ccc2c(c1)C(=O)C=CC2=O | 4.47 | 4.64 |
| – | -0.192 | O=C1C=CC(=O)c2cc(O)ccc21 | 4.88 | 5.15 |
| < 4.00 | -0.18 | CC(=O)Oc1ccc2c(c1)C(=O)C=CC2=O | 4.66 | 4.56 |
| < 4.00 | -0.166 | O=C(Oc1ccc2c(c1)C(=O)C=CC2=O)c1cccs1 | 4.74 | 5.05 |
| 4.27 | -0.207 | O=C1C=CC(=O)c2cc(OCc3ccccc3)ccc21 | 4.58 | 4.77 |
| – | -0.174 | O=C(Oc1ccc2c(c1)C(=O)C=CC2=O)c1ccccc1 | 4.92 | 4.72 |
| – | -0.213 | O=C(Oc1cccc2c1C(=O)C=CC2=O)c1ccco1 | 4.87 | 4.90 |
| – | -0.197 | CCOc1ccc2c(c1)C(=O)C=CC2=O | 4.67 | 4.60 |
| < 4.00 | -0.16 | O=C(Oc1ccc2c(c1)C(=O)C=CC2=O)c1ccco1 | 4.80 | 4.77 |
| – | -0.413 | O=C(OC1=CC(=O)c2ccccc2C1=O)c1cccs1 | 4.38 | 4.45 |
| < 4.00 | -0.212 | O=C(Oc1cccc2c1C(=O)C=CC2=O)c1cccs1 | 5.21 | 5.28 |
